Measurements published in patent US10487117B2, “Antimicrobial peptide for nosocomial infections” (priority 2015, dated 2019).
Values joined by “and” are separate entries in the source; they are usually repeats but may differ in a detail not shown here. Equal entries are not always repeated. Residues, ends and D or L forms follow the SMILES beside them.

Experiments:
planktonic P. aeruginosa [1] = test: SYTOX Green membrane permeabilization assay, planktonic; format: cell-based, Pseudomonas aeruginosa; details: 10% Triton X-100 as maximum reference
Method: Further insight into the membrane-permeabilizing effect of the selected AMPs against P. aeruginosa was evaluated by the Sytox Green assay. Local membrane disturbances allow the cell uptake of the fluorescent Sytox Green dye that subsequently stains the cell nucleic acids; the fluorescence increase is registered to monitor the cell membrane permeabilization. Therefore, the half permeabilization action (ED50) was measured, and the total permeabilization activity expressed as a percentage (Table 5). […] On the other hand, WY-12 and CA-M required a 6- to 7-fold greater concentration than RNase 3 to produce half of their permeabilizing effect.
(§1) Membrane permeabilization was followed using the method SYTOX Green Fluorescence membrane permeabilization assay. In the planktonic assay, bacterial cells were grown at 37° C. to an OD600=0.2, centrifuged at 5000×g for 5 min, and resuspended in 1×PBS to an OD600=0.2. An aliquot of 200 μl was then transferred to a microtiter plate. For biofilm assay, 24 h formed P. aeruginosa biofilm in a 96-well microtiter plate were washed three times with sterile PBS. SYTOX Green was added to a final concentration of 1 μM and incubated 15 min in darkness. Changes in the fluorescence were continuously recorded after addition of a serially diluted protein/peptides from 50 to 0.1 μM in a Victor3 plate reader. The peptide concentration required to achieve half of total and total membrane permeabilization achieved after 40 min was estimated from nonlinear regression analysis as previously described (Pulido D. et al. Antimicrob Agents Chemother 2013). A maximum reference value was taken for Triton X-100 at 10%.

[2] = Biofilm cell mortality, BacTiter-Glo luminescent assay; format: cell-based, Pseudomonas aeruginosa; details: 24 h formed biofilm; 4 h at 37° C.; 10% Triton X-100 as maximum reference; N.D. = not detected at 50 μM; read-out: Biofilm cell mortality (%max)
Method: (§2) Bacterial viability was assayed using the BacTiter-Glo™ microbial cell viability kit. Briefly, protein/peptides were dissolved in 10 mM sodium phosphate, 0.1M buffer, pH 7.5, serially diluted from 50 to 0.1 μM and tested in a 96-well microtiter plate containing P. aeruginosa planktonic (OD600˜0.2) or 24 h formed biofilm for 4 h at 37° C. Fifty microliters of BacTiter-Glo™ reagent was added to each well according to the manufacturer's instructions and incubated at room temperature for 15 min. Luminescence was read on a Victor3 plate reader with a 3-s integration time. Fifty percent (ED50) and total inhibitory concentrations were calculated by fitting the data to a dose-response curve.
As a first approach, the biofilm cell viability was monitored using the BacTiter-Glo™ luminescent assay. Therefore, the antimicrobial action of the studied AMPs was determined on already established P. aeruginosa biolfilms (FIG. 1 and Table 6). […] However, for all the active peptides, the concentrations needed to produce an equivalent effect in biofilms were between 2 to 10 times higher than in planktonic cultures. […] At the same time, we applied the crystal violet technique to assess the peptide ability to disperse pre-established P. aeruginosa biofilms.
(§3) Biofilm formation assay was modified from the previously described protocol (Huedo P. et al. 2014). Briefly, overnight cultures of P. aeruginosa were centrifuged at 5000×g for 5 min, washed and adjusted to an OD600=0.1 in tryptic soy medium (TSB). Two hundred microliters of the bacterial suspension were dispensed in each well of a polystyrene 96-well microtiter plate (Greiner Bio-one, France). The plate was incubated at 37° C. on an orbital shaker (30 rpm). The media was exchanged with fresh pre-warmed TSB after 4 h, in order to remove the non-attached bacteria. After 24 h incubation, the formation of biofilm was then evaluated using the crystal violet staining technique (Stepanovic S. et al. 2000). Briefly, the plates were washed three times with PBS, fixed at 60° C. for 1 h, and stained for 15 min with 200 μl of 0.1% crystal violet. After the dye was discarded, plates were rinsed in PBS and allowed to dry for 30 min at 37° C. Crystal violet was dissolved in 250 μl of 95% ethanol for 15 min, and the OD570 of the extracted dye was measured using a Victor3 plate reader (Perkin-Elmer, Waltham, Mass.).

planktonic P. aeruginosa [3] = format: cell-based, Pseudomonas aeruginosa; details: planktonic, 4 h
Method: The microbial cell viability was then assayed using the BacTiter-Glo™ luminescent kit. […] No cell reduction was detected for the peptide GL-13 even for the maximum concentration assayed (50 μM).
as §2

[4] = tested on: established P. aeruginosa biofilms; test: SYTOX Green membrane permeabilization assay on biofilm; format: cell-based, Pseudomonas aeruginosa; details: maximum percentage at final incubation time, 10% Triton X-100 reference
Method: as §1
(§4) Thereupon, the antimicrobial mechanism of action of the RNase 3 derived peptide on P. aeruginosa biofilms was further characterized with the depolarization and permeabilization assays. As applied for the P. aeruginosa planktonic culture, the fluorescent DisC3(5) assay was also used here in order to monitor the depolarization activity of the studied protein and peptides against established biofilms. Therefore, we have measured the half depolarization action (ED50), and the total depolarization activity expressed as a percentage (Table 7). […] Similar results were obtained for the Sytox Green permeabilization assay, where the total permeabilization effect was hindered for all the AMPs tested, and between two to ten times higher concentrations were required to achieve half of the biofilm cell permeabilizing effect in comparison to the planktonic cells.

[5] = tested on: established P. aeruginosa biofilms; test: DiSC3(5) membrane depolarization assay on biofilm; format: cell-based, Pseudomonas aeruginosa; details: maximum percentage at final incubation time, 10% Triton X-100 reference
Method: Membrane depolarization was followed using the method described earlier (Torrent M. et al. 2008). Briefly, bacterial cells were grown at 37° C. to an OD600=0.2, centrifuged at 5000×g for 7 min, washed with 5 mM Hepes at pH 7.2 containing 20 mM glucose, and resuspended in 5 mM Hepes-KOH, 20 mM glucose, and 100 mM KCl at pH 7.2 to an OD600=0.05 and 200 μl were transferred to a microtiter plate for planktonic assays. For biofilm assay, 24 h formed P. aeruginosa biofilm in a 96-well microtiter plate were washed three times with sterile PBS. Afterwards P. aeruginosa biofilms were washed with 5 mM Hepes at pH 7.2 containing 20 mM glucose, and rinsed in 5 mM Hepes-KOH, 20 mM glucose, and 100 mM KCl at pH 7.2. In both cases, DiSC3(5) was added to a final concentration of 0.4 μM and changes in the fluorescence were continuously recorded after addition of peptides at 10 μM in a Victor3 plate reader. A maximum reference value for total depolarization is calculated for Triton X-100 at 10%. Alternatively, changes in the fluorescence were continuously recorded after addition of a serially diluted protein/peptides from 50 to 0.1 μM. The peptide concentration required to achieve half of total and total membrane depolarization after 40 min incubation time was estimated from nonlinear regression analysis as previously described (Torrent M. et al. 2010)
as §4

[6] = tested on: pre-established P. aeruginosa biofilm; test: Biofilm eradication assay, crystal violet staining; format: cell-based, Pseudomonas aeruginosa
Method: Following, the biofilm eradication activity was determined (FIG. 1 and Table 6). […] Moreover, the biofilm eradication activity of all the tested reference peptides was well above the maximum concentration tested (50 μM), except for RN3(5-17P22-36) which was able to eradicate the biofilm close to 50 μM.
as §3
Biofilms were grown as above. Twenty-four hour formed P. aeruginosa biofilm was washed three times with sterile PBS, and rinsed with 10 mM sodium phosphate buffer pH 7.5. Each well was treated with increasing protein/peptide concentrations (from 0.01 to 50 μM) and incubated at 37° C. for 4 h. The biofilm eradication was then evaluated using the crystal violet staining technique (Stepanovic S. et al. 2000). The ability of the antimicrobial peptides to disperse and reduce the biofilm mass of preformed biofilms was calculated. The peptide concentration required to achieve total preformed biofilm eradication after 4 h incubation time was estimated. A maximum reference value was taken for Triton X-100 at 10%. The minimum biofilm eradication concentration (MBEC), defined as the protein/peptide concentration where the 99.9% of the biofilm mass is eradicated was estimated.

planktonic P. aeruginosa [7] = test: Minimum agglutination concentration (MAC) assay; format: cell-based, Pseudomonas aeruginosa; details: 1 h at room temperature, mean ± SEM
Method: Bacterial agglutination of RNase 3 is important for the antimicrobial activity of the protein. Therefore, the peptide capability to agglutinate P. aeruginosa cells was assayed by the minimum agglutination concentration assay (MAC) (Table 3).
Bacterial cells were grown in LB at 37° C. to an OD600=0.2, centrifuged at 5000×g for 2 min and resuspended in 10 mM Tris-HCl buffer, 0.1 M NaCl, pH 7.5. An aliquot of 100 μl of the bacterial suspension was treated with increasing protein/peptide concentrations (from 0.01 to 50 μM) and incubated at room temperature for 1 h. The aggregation behavior was observed by visual inspection and the agglutinating activity is expressed as the minimum agglutinating concentration of the sample tested, as previously described (Torrent M. et al. 2012).

[8] = tested on: biofilm-producing microorganism; test: Antimicrobial and antibiofilm activities of peptides from the design process; format: cell-based; details: peptide from the design process
Text: Furthermore, even though the peptide has been designed with the RNAse 3 sequence as starting point, the peptide has surprising advantages in respect of the RNase 3 due to the specific deletion and selection of the amino acids conforming the peptide amino acid. […] This is the case of the peptide ECP(7-13)(32-36) with sequence SEQ ID NO: 7.

Compound	Permeabilization %max (planktonic P. aeruginosa [1])	mortality [2]	IC50 (planktonic P. aeruginosa [3])	Permeabilization Mean % ± SEM [4]	Depolarization Mean % ± SEM [5]	Biofilm eradication (%max) ([6]; 24 h formed biofilm, 4 h at 37° C., 10% Triton X-100 as maximum reference, listed as the peptide of the invention)	biofilm eradication concentration (MBEC) ([6]; total eradication of preformed biofilm, 4 h, max tested 50 μM)	MAC (minimum agglutinating activity) (planktonic P. aeruginosa [7])	antimicrobial and antibiofilm activities [8]
CC[C@H](C)[C@H](NC(=O)[C@H](C)NC(=O)[C@H](CCCNC(=N)N)NC(=O)[C@H](CCSC)NC(=O)[C@H](C)NC(=O)[C@@H](NC(=O)[C@@H](NC(=O)[C@H](CCCNC(=N)N)NC(=O)[C@@H]1CCCN1C(=O)[C@H](CO)NC(=O)[C@@H](NC(=O)[C@H](Cc1c[nH]cn1)NC(=O)[C@H](CCC(N)=O)NC(=O)[C@@H](NC(=O)[C@H](C)NC(=O)[C@H](Cc1ccccc1)NC(=O)[C@H](Cc1c[nH]c2ccccc12)NC(=O)[C@H](CCC(N)=O)NC(=O)[C@H](C)NC(=O)[C@H](CCCNC(=N)N)NC(=O)[C@@H](NC(=O)[C@H](Cc1ccccc1)NC(=O)[C@@H]1CCCN1C(=O)[C@@H](N)CCCNC(=N)N)[C@@H](C)O)[C@@H](C)CC)[C@@H](C)CC)[C@@H](C)O)[C@@H](C)CC)C(=O)N[C@@H](CC(N)=O)C(=O)N[C@@H](CC(N)=O)C(=O)N[C@@H](Cc1ccc(O)cc1)C(=O)N[C@@H](CCCNC(=N)N)C(=O)N[C@@H](Cc1c[nH]c2ccccc12)C(=O)N[C@@H](CCCNC(=N)N)C(N)=O [RN3(5-17P22-36)] (H-RPFTRAQWFAIQHISPRTIAMRAINNYRWR-NH2; N-terminus assumed)	63.63 ± 1.42%	96.4 ± 2.41%	1250 ± 100 nM	64.26 ± 5.44%	73.51 ± 1.94%	totally disperse the cell community layer	~50 µM	1.5 µM and 1.50 ± 0.08 µM	–
ECP(7-13)(32-36): design-process peptide with sequence SEQ ID NO: 7, lacking the antimicrobial and antibiofilm activities (RAQWFAINYRWR; peptide ECP(7-13)(32-36))	–	–	–	–	–	–	–	–	did not display the antimicrobial and antibiofilm activities
